Assay results as given in US20110015226A1, “Treatment of Energy Utilization Disease” (SUMMIT CORPORATION PLC, priority 2008, published 2011).

Legend:
Format in all cases: biochemical
[1] = biological target: T1, N-acetyl-β-D-glucosaminidase (A. oryzae) (Aspergillus oryzae, UniProt Q8J2T0); assay: Glycosidase inhibition: N-acetyl-β-D-glucosaminidase (A. oryzae); details: compounds tested at 0.8 mM
T1 construct: purchased Sigma
Excerpt: (§1) The results tabulated below were obtained using commercially available glycosidases and p-nitrophenyl-substrates using standard methods described for example by Watson et al (1997) Phytochemistry 46 255-259. All enzymes and substrates were bought from Sigma. Enzyme and substrate solutions were made using sodium phosphate buffers at the pH optima values. The enzymes used were α-D-glucosidase Saccharomyces cerevisiae, Bacillus stearothermophilus, Oryzae sativa), β-D-glucosidase (Almond), α-D-mannosidase (Jack bean), α-D-galactosidase (Green coffee beans), β-D-galactosidase (Bovine liver), α-L-fucosidase (Bovine kidney), N-acetyl-β-D-glucosaminidase (Bovine kidney, Jack bean, Aspergillus oryzae), Naringinase (Penicillium decumbens) and amyloglucosidase (Aspergillus niger). All enzymes were used with the appropriate p-nitrophenyl substrates (5 mM). Amyloglucosidase activity was measured using amylopectin (0.1%) (Merck) mixed with sodium phosphate buffer, pH 4.5 in a glass bottle, and healed in a boiling water bath for 20 minutes to dissolve with released glucose measured using ‘Trinder’ glucose detection solution (Sigma).
(§2) All enzymes and para-nitrophenyl substrates were purchased from Sigma, with the exception of beta-mannosidase which came from Megazyme. Enzymes were assayed at 27° C. in 0.1M citric acid/0.2M disodium hydrogen phosphate buffers at the optimum pH for the enzyme. The incubation mixture consisted of 10 μl enzyme solution, 10 μl of 1 mg/ml aqueous solution of extract and 50 μl of the appropriate 5 mM para-nitrophenyl substrate made up in buffer at the optimum pH for the enzyme. The reactions were stopped by addition of 70 μl 0.4M glycine (pH 10.4) during the exponential phase of the reaction, which had been determined at the beginning using uninhibited assays in which water replaced inhibitor. Final absorbances were read at 405 nm using a Versamax microplate reader (Molecular Devices). Assays were carried out in triplicate, and the values given are means of the three replicates per assay. (See Watson, A. A., Nash, R. J., Wormald, M. R., Harvey, D. J., Dealler, S., Lees, E., Asano, N., Kizu, H., Kato, A., Griffiths, R. C., Cairns, A. J. and Fleet, G. W. J. (1997). Glycosidase-inhibiting pyrrolidine alkaloids from Hyacinthoides non-scripta. Phytochemistry 46 (2): 255-259.)

[2] = biological target: T2, α-D-galactosidase Green coffee bean (Coffea arabica, UniProt Q42656); assay: Glycosidase inhibition: α-D-galactosidase Green coffee bean; details: compounds tested at 0.8 mM
T2 construct: α-D-galactosidase (Green coffee beans); purchased Sigma; host or cells: green coffee beans
T2 sequence (Q42656 16-378): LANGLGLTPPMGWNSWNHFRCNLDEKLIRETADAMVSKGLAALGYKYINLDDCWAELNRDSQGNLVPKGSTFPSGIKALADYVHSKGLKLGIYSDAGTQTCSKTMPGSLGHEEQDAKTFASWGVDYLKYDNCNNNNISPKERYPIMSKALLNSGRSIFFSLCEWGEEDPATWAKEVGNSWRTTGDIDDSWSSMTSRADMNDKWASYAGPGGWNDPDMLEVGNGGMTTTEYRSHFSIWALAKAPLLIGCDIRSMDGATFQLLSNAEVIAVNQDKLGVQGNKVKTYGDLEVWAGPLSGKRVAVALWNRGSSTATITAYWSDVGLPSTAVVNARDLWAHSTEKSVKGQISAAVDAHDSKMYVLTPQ
Excerpt: as §1, §2

[3] = biological target: T3, α-D-mannosidase Jack bean (Canavalia ensiformis, UniProt C0HJB3); assay: Glycosidase inhibition: α-D-mannosidase Jack bean; details: compounds tested at 0.8 mM
T3 construct: α-D-mannosidase (Jack bean); purchased Sigma
T3 sequence (C0HJB3 1-981): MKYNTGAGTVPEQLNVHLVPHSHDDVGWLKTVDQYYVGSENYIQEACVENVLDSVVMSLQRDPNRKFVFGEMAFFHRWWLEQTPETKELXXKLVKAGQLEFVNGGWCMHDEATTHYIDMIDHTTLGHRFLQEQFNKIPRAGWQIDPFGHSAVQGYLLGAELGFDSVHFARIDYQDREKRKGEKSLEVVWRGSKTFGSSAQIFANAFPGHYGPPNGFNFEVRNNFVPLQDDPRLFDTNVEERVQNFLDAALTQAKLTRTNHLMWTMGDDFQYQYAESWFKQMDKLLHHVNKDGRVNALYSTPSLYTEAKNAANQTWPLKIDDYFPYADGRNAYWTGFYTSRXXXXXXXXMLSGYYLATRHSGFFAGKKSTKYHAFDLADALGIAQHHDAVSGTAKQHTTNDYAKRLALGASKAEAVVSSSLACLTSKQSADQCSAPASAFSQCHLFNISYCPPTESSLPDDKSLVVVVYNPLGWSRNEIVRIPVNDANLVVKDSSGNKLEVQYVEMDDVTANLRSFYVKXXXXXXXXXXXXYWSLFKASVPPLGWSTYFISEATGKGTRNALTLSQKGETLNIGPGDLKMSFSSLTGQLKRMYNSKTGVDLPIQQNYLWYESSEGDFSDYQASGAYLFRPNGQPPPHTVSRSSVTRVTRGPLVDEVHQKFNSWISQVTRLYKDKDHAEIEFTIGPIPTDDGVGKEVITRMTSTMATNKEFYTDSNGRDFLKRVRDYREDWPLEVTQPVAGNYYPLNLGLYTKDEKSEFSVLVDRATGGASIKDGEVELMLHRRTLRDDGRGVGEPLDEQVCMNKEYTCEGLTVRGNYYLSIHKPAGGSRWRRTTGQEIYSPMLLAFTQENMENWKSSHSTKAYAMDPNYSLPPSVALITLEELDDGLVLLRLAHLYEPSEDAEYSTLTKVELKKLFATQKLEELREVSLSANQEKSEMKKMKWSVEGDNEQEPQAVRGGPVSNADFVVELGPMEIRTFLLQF

[4] = biological target: T4, α-L-fucosidase Bovine kidney (Bos taurus, UniProt Q2KIM0); assay: Glycosidase inhibition: α-L-fucosidase Bovine kidney; details: compounds tested at 0.8 mM
T4 construct: α-L-fucosidase (Bovine kidney); purchased Sigma; host or cells: bovine kidney
T4 sequence (Q2KIM0 23-468): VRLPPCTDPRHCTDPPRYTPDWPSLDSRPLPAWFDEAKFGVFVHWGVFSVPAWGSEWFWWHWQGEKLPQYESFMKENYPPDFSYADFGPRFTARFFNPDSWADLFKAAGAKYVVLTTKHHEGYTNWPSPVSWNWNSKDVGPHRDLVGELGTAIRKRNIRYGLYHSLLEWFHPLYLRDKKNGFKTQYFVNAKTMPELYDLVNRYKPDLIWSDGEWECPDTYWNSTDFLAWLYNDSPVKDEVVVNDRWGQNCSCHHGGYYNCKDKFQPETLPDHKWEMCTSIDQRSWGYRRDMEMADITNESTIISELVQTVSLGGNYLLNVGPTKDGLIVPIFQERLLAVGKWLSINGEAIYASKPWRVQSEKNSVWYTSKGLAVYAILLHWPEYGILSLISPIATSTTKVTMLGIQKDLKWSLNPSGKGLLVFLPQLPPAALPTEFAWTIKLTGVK

α-D-glucosidase (Rice) = biological target: T5, α-D-glucosidase (Rice) (Oryza sativa subsp. japonica, UniProt Q653V7); assay: Glycosidase inhibition: α-D-glucosidase (Rice); details: compounds tested at 0.8 mM
T5 construct: purchased Sigma
T5 sequence (Q653V7 34-885): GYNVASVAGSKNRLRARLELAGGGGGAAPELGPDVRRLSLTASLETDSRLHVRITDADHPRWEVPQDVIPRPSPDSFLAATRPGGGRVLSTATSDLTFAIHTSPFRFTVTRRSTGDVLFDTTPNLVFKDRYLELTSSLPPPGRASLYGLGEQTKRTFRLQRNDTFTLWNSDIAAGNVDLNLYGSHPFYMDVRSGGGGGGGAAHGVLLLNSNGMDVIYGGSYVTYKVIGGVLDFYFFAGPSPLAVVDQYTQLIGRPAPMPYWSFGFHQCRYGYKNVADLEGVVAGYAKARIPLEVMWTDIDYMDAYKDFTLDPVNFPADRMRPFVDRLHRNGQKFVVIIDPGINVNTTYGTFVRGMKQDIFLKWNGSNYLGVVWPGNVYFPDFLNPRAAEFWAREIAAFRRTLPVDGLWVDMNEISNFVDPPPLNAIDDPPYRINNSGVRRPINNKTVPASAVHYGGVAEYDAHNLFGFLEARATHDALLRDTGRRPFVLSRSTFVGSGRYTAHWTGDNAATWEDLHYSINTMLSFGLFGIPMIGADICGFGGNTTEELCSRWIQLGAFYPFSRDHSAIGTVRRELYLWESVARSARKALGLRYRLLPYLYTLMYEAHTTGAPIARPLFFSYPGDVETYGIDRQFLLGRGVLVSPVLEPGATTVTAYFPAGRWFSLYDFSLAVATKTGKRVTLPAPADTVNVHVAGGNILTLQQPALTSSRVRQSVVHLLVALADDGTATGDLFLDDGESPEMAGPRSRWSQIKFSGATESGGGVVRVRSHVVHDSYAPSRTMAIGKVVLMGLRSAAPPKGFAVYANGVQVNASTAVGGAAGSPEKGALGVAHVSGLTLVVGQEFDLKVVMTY

[5] = biological target: α-D-glucosidase (Bacillus) (Geobacillus stearothermophilus, UniProt A0ACH1E9U3); assay: Glycosidase inhibition: α-D-glucosidase (Bacillus); details: compounds tested at 0.8 mM
Sequence of α-D-glucosidase (Bacillus) (A0ACH1E9U3 entry or part of it): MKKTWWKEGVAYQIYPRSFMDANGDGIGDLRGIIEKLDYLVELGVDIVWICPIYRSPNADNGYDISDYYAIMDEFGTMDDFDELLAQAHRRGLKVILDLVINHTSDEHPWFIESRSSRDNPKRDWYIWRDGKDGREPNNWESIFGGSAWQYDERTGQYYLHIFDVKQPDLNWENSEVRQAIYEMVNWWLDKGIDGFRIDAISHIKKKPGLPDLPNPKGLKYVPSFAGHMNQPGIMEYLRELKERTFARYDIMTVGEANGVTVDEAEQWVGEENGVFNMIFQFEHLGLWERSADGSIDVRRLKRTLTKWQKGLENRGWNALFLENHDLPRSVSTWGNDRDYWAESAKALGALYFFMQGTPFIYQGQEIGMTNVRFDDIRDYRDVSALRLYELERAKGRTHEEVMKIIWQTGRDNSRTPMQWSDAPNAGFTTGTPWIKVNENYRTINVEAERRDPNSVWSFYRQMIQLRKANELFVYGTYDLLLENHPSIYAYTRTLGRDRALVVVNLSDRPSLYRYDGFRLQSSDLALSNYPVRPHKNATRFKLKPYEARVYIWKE
Excerpt: as §1, §2

[6] = biological target: T6, Amyloglucosidase Aspergillus niger (Aspergillus niger, UniProt P69328); assay: Glycosidase inhibition: Amyloglucosidase Aspergillus niger; details: compounds tested at 0.8 mM
T6 construct: purchased Sigma
T6 sequence (P69328 25-640): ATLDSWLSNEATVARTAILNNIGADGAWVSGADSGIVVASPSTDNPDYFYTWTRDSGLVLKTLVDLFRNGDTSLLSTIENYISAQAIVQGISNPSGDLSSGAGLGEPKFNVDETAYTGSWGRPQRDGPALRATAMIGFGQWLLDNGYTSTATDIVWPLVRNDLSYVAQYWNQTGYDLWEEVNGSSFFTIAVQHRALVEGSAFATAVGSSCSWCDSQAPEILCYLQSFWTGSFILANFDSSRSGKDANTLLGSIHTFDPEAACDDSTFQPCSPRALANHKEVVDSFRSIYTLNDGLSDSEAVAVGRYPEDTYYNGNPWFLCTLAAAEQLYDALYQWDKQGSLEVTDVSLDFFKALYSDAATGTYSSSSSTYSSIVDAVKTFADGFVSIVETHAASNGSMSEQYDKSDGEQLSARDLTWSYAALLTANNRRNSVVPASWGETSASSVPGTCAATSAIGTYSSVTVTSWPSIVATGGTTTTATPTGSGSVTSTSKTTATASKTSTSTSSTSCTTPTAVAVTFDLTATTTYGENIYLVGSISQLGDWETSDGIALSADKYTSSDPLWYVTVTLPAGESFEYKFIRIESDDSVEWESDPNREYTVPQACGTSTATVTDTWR
Excerpt: as §1, §2

[7] = biological target: T7, β-Glucuronidase Bovine liver (Bos taurus, UniProt A3KMY8); assay: Glycosidase inhibition: β-Glucuronidase Bovine liver;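 note: bovine liver β-glucuronidase acting on p-nitrophenyl β-D-glucuronide substrate in citric acid/disodium hydrogen phosphate buffer, pH 5.0, 27 °C, mean of triplicate runs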
T7 construct: The assay involved the use of Bovine liver β-glucuronidase; purchased Sigma; host or cells: bovine liver
T7 sequence (A3KMY8 1-652): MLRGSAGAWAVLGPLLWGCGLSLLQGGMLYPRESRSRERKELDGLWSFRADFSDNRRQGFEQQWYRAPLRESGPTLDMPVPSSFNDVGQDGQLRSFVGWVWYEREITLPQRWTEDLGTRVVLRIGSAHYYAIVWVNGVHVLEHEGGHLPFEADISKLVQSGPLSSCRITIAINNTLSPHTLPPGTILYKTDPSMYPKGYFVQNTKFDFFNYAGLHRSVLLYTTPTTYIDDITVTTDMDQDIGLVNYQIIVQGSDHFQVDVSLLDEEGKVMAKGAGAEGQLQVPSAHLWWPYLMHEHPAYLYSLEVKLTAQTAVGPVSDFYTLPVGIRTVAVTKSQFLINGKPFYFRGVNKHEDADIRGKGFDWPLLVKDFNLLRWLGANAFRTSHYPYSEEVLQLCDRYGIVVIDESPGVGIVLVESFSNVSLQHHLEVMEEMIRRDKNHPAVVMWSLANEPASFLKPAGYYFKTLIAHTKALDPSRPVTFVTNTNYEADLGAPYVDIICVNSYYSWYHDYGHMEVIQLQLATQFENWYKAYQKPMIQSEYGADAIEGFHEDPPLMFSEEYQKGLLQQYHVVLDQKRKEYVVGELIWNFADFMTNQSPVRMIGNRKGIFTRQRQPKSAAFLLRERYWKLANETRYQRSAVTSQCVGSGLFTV

[8] = test system: N-acetyl-β-D-glucosaminidase (Bovine kidney); assay: Glycosidase inhibition: N-acetyl-β-D-glucosaminidase (Bovine kidney); details: for % inhibition, N-acetyl-β-D-glucosaminidase (Bovine kidney): compounds tested at 0.8 mM;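 for all read-outs here: enzyme activity followed by cleavage of the matching p-nitrophenyl glycoside (5 mM) in phosphate buffer set to the enzyme's optimal pH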
α-D-glucosidase (Yeast) = biological target: T8, α-D-glucosidase (Yeast) (Saccharomyces cerevisiae, UniProt P53341); assay: Glycosidase inhibition: α-D-glucosidase (Yeast); details: compounds tested at 0.8 mM
T8 construct: purchased Sigma
T8 sequence (P53341 whole entry): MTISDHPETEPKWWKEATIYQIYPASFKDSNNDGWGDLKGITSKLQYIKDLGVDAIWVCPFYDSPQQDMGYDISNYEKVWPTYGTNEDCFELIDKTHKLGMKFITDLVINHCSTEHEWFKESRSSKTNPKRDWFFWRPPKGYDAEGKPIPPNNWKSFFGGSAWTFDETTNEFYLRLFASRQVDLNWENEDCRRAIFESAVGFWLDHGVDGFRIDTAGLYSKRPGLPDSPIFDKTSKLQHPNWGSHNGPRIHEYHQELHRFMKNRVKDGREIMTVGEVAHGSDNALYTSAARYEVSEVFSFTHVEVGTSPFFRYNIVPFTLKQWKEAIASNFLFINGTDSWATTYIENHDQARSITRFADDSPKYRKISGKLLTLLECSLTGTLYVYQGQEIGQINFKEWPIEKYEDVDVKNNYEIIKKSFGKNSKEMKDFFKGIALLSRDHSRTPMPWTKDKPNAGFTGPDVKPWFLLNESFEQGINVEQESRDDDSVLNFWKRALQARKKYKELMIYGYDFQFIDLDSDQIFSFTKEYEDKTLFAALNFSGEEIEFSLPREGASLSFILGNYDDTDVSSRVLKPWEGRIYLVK
Excerpt: as §1, §2

[9] = test system: N-acetyl-β-D-glucosaminidase (Jack bean); assay: Glycosidase inhibition: N-acetyl-β-D-glucosaminidase (Jack bean); details: compounds tested at 0.8 mM
Excerpt: as §1
as §2, with “(See Watson, A. A., Nash, R. J., Wormald, M. R., Harvey, D. J., Dealler, S., Lees, E., Asano, N., Kizu, H., Kato, A., Griffiths, R. C., Cairns, A. J. and Fleet, G. W. J. (1997). Glycosidase-inhibiting pyrrolidine alkaloids from Hyacinthoides non-scripta. Phytochemistry 46 (2): 255-259.)” left out

[10] = test system: β-D-mannosidase Cellullomonas fimi; assay: Glycosidase inhibition: β-D-mannosidase Cellullomonas fimi; details: compounds tested at 0.8 mM
Method: as §2

[11] = test system: β-D-galactosidase Bovine liver; assay: Glycosidase inhibition: β-D-galactosidase Bovine liver; details: compounds tested at 0.8 mM
Excerpt: as §1, §2

β-D-glucosidase (Almond) = assay: Glycosidase inhibition: β-D-glucosidase (Almond); details: compounds tested at 0.8 mM
Excerpt: as §1
as §2, with “(See Watson, A. A., Nash, R. J., Wormald, M. R., Harvey, D. J., Dealler, S., Lees, E., Asano, N., Kizu, H., Kato, A., Griffiths, R. C., Cairns, A. J. and Fleet, G. W. J. (1997). Glycosidase-inhibiting pyrrolidine alkaloids from Hyacinthoides non-scripta. Phytochemistry 46 (2): 255-259.)” left out

[12] = test system: Naringinase Penicillium decumbens; assay: Glycosidase inhibition: Naringinase Penicillium decumbens; details: compounds tested at 0.8 mM
Excerpt: as §1
as §2, with “(See Watson, A. A., Nash, R. J., Wormald, M. R., Harvey, D. J., Dealler, S., Lees, E., Asano, N., Kizu, H., Kato, A., Griffiths, R. C., Cairns, A. J. and Fleet, G. W. J. (1997). Glycosidase-inhibiting pyrrolidine alkaloids from Hyacinthoides non-scripta. Phytochemistry 46 (2): 255-259.)” left out

T1 sequence (Q8J2T0 97-600): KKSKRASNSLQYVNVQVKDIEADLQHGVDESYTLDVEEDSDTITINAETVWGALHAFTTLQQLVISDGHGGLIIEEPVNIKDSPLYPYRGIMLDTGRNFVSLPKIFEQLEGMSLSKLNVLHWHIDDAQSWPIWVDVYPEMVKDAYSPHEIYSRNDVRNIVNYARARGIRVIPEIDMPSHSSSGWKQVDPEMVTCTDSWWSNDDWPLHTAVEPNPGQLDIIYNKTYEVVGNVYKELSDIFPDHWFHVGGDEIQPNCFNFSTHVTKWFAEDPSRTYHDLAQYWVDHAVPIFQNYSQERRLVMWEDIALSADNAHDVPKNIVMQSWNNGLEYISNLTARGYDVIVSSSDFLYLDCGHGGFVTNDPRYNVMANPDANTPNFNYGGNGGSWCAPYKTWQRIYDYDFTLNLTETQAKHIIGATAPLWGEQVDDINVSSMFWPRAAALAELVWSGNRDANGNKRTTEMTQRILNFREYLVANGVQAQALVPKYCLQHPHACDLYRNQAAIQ

Row | Compound | inhibition at 800 µM [1] [%] | inhibition at 800 µM [2] [%] | inhibition at 800 µM [3] [%] | inhibition at 800 µM [4] [%] | inhibition at 800 µM (α-D-glucosidase (Rice)) [%] | inhibition at 800 µM [5] [%] | inhibition at 800 µM [6] [%] | IC50 ([7]; pH 5.0, 27° C., p-nitrophenyl β-D-glucuronide, read-out: IC50, β-Glucuronidase Bovine liver) [µM] | % inhibition, N-acetyl-β-D-glucosaminidase (Bovine kidney) [8] | IC50 ([8]; read-out: IC50, N-acetyl-β-D-glucosaminidase (Bovine kidney)) [µM] | inhibition at 800 µM (α-D-glucosidase (Yeast)) [%] | % inhibition, N-acetyl-β-D-glucosaminidase (Jack bean) [9] | % inhibition, β-D-mannosidase Cellullomonas fimi [10] | % inhibition, β-D-galactosidase Bovine liver [11] [%] | % inhibition, β-D-glucosidase (Almond) (β-D-glucosidase (Almond)) [%] | inhibition at 800 µM ([7]; compounds tested at 0.8 mM) [%] | % inhibition, Naringinase Penicillium decumbens [12] [%]
1 | O=C(O)CN1C[C@@H](O)[C@H](O)[C@H]1CO [Compound T4, 2-((2R,3R,4R)-3,4-Dihydroxy-2-(hydroxymethyl)pyrrolidin-1-yl)acetic acid] | < 50 | < 50 | < 50 | < 50 | < 50 | < 50 | < 50 | 160 | 81.9% | 39.6 | < 50 | – | – | – | – | – | –
2 | OCCN1C[C@H](O)[C@@H](O)[C@H](O)[C@H]1CO [Miglitol, reference compound] | < 5 | 19 | – | – | 100 | 83 | 78 | – | NI (NI = no inhibition) | – | < 5 | NI (NI = no inhibition) | NI (NI = no inhibition) | 87 | 99 | < 5 | 26
